Some test systems named below: 786-0; A549; HCT-15; HOP-62; HT-29; IGROV-1; KM12; NCI-H226; OVCAR-4; RXF 393; SF-295; SK-MEL-5; SN12C; SNB-19; SR; SW-620; Malme-3M; U-251; A498.
Experiment in all cases: inhibition of tumour cell growth, NCI panel, 48 h

The text below walks through data of ChEMBL document CHEMBL1201862, “PubChem BioAssay data set” (2004).

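Test compounds were applied to cells in 96-well plates for 48 hours at 5 doses. GI50 marks 50% less growth.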 The source made the active and inactive calls. Rule as the data show it: active = GI50 up to about 1.1 µM and inactive = higher.

Consider `N#C/N=C1\NC(Cc2ccccc2)C(=O)N1CCc1c[nH]c2ccccc12` (centres undefined), for which the GI50 in the assay on 786-0 was 18.5 µM (inactive); with A549, 27 µM (inactive); in the assay on HCT-15, 29.4 µM; in the assay with HOP-62 it was 28.1 µM (inactive); in the assay on HT-29, 34.9 µM (inactive); in the assay on IGROV-1, 31.8 µM (inactive). For the same compound, the GI50 with KM12 is 29.4 µM (inactive); in the assay with NCI-H226, 37.1 µM (inactive); in the assay with OVCAR-4, 25.5 µM (inactive); in the assay with RXF 393, > 10 µM (inactive); in the assay with SF-295, 32.4 µM (inactive); in the assay on SK-MEL-5 it was 17.8 µM (inactive). The GI50 with SN12C was 29.9 µM (inactive); in the assay on SNB-19 it was 37 µM (inactive); in the assay on SR it was 33.7 µM (inactive); in the assay on SW-620 it was 34.9 µM (inactive).

Turning to `CCOC(=O)c1nn2c(nc1=O)sc1ccc3ccccc3c12`, the GI50 in the assay on 786-0 was > 100 µM (inactive); with A549, > 100 µM (inactive); in the assay with HCT-15, greater than 100 µM; in the assay with HOP-62, > 100 µM (inactive); in the assay with HT-29, > 100 µM (inactive); in the assay with IGROV-1, > 100 µM (inactive). In addition, the GI50 with KM12, with Malme-3M, with NCI-H226, with OVCAR-4, in the assay with RXF 393 and in the assay with SF-295 was > 100 µM (inactive) in each case. Moreover, the GI50 in the assay with SK-MEL-5, in the assay with SN12C, with SNB-19, in the assay with SR, in the assay on SW-620 and in the assay with U-251 was > 100 µM (inactive) each time.

In the case of `O=C(NC(=O)c1cc2cc(Br)cc(Br)c2oc1=O)Oc1ccccc1`, the GI50 with 786-0 is 45.3 µM (inactive); in the assay with A498, > 100 µM (inactive); with A549 it was > 100 µM (inactive); in the assay with HCT-15 it was greater than 100 µM; in the assay with HOP-62 it was 43.7 µM (inactive); with HT-29 it was > 100 µM (inactive). Besides, the GI50 was 50.7 µM (inactive) in the assay on IGROV-1; 93.8 µM (inactive) in the assay on KM12; > 100 µM (inactive) in the assay with Malme-3M; 78.2 µM (inactive) with NCI-H226; > 100 µM (inactive) in the assay with OVCAR-4; 28.2 µM (inactive) in the assay with RXF 393. The GI50 with SF-295 was 49.9 µM (inactive); in the assay on SK-MEL-5, > 100 µM (inactive); with SN12C, 61.2 µM (inactive); with SNB-19, 59.8 µM (inactive); in the assay with SW-620, > 100 µM (inactive); in the assay with U-251, 28.2 µM (inactive).

As to `COc1ccc2c(c1)CN1CCc3c(cc(OC)c(OC)c3OC)C1C2` (centres undefined), the GI50 is > 100 µM (inactive) with 786-0; > 100 µM (inactive) with A549; greater than 100 µM in the assay with HCT-15; > 100 µM (inactive) with HOP-62; 68.5 µM (inactive) in the assay on HT-29; > 100 µM (inactive) in the assay with IGROV-1. In addition, the GI50 is > 100 µM (inactive) with Malme-3M; > 100 µM (inactive) in the assay on NCI-H226; > 100 µM (inactive) in the assay with OVCAR-4; > 100 µM (inactive) in the assay with RXF 393; > 100 µM (inactive) with SF-295; 36.5 µM (inactive) in the assay on SK-MEL-5. Moreover, the GI50 in the assay on SN12C, in the assay on SNB-19, in the assay with SR, in the assay on SW-620 and with U-251 was > 100 µM (inactive) each time.
